Results on 9 compounds are retold here after PubChem BioAssay (NCI).

Test systems include CAKI-1 renal; CCRF-CEM leukemia; EKVX NSCLC; K-562 leukemia; NCI-H460 lung; OVCAR-8 ovarian; RXF 393 renal; SF-268 CNS; SK-MEL-28 melanoma; RPMI-8226 leukemia.
What all share (assay): inhibition of tumour cell growth, NCI panel, 48 h

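Protocol summary: plate cells (96-well), add compound at 5 concentrations, incubate 48 h, interpolate endpoints linearly. GI50 marks 50% less growth. The concentration for full growth arrest is given as TGI.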 Some results are limits rather than exact numbers.

Take `COC(=O)c1cc2c(s1)-c1nccc3c1c(nc1ccccc13)C2=O`: the GI50 is more than 100 µM in the assay on CAKI-1 renal; more than 100 µM in the assay on CCRF-CEM leukemia; more than 100 µM with EKVX NSCLC; more than 100 µM with K-562 leukemia; more than 100 µM in the assay with NCI-H460 lung; 19.1 µM in the assay with OVCAR-8 ovarian. In addition, the GI50 was 29.8 µM in the assay on RXF 393 renal, 29.1 µM in the assay with SF-268 CNS and more than 100 µM in the assay with SK-MEL-28 melanoma. Moreover, the TGI in the assay with CAKI-1 renal was more than 100 µM; in the assay on CCRF-CEM leukemia, more than 100 µM; in the assay on EKVX NSCLC, more than 100 µM; with K-562 leukemia, more than 100 µM; with NCI-H460 lung, more than 100 µM; with OVCAR-8 ovarian, 48.4 µM. Besides, the TGI with RXF 393 renal, in the assay on SF-268 CNS and in the assay with SK-MEL-28 melanoma was more than 100 µM each time.

On to `O=C1c2cc3c(cc2-c2c1c1cc(Cl)c(Cl)cc1c(=O)n2C[C@H](O)CO)OCO3`, for which the GI50 in the assay with CCRF-CEM leukemia was less than 0.01 µM; in the assay with EKVX NSCLC it was 0.0243 µM; in the assay with K-562 leukemia, less than 0.01 µM; in the assay with NCI-H460 lung, less than 0.01 µM; in the assay with OVCAR-8 ovarian, less than 0.01 µM; in the assay on RPMI-8226 leukemia, less than 0.01 µM. For the same compound, the GI50 is less than 0.01 µM in the assay with RXF 393 renal, less than 0.01 µM with SF-268 CNS and 0.0429 µM with SK-MEL-28 melanoma. The TGI in the assay with CCRF-CEM leukemia was 19.1 µM; in the assay with EKVX NSCLC it was 19 µM; in the assay with K-562 leukemia, more than 100 µM; with NCI-H460 lung it was 0.0268 µM; with OVCAR-8 ovarian, 1.16 µM; with RPMI-8226 leukemia, 0.188 µM. The values for the TGI with RXF 393 renal, in the assay with SF-268 CNS and with SK-MEL-28 melanoma were 0.0378 µM, 2.7 µM and 8.62 µM, respectively.

As for `COc1ccc(Cn2c(N)c(S(=O)(=O)c3ccc(Cl)cc3)c3nc(C#N)c(C#N)nc32)cc1`, the GI50 in the assay on CAKI-1 renal is 21.9 µM; in the assay on EKVX NSCLC, more than 50 µM; in the assay with K-562 leukemia, more than 50 µM; in the assay on NCI-H460 lung, 2.94 µM; in the assay with OVCAR-8 ovarian, 7.55 µM; in the assay on RPMI-8226 leukemia, 22.5 µM. Besides, the values for the GI50 in the assay on RXF 393 renal, with SF-268 CNS and in the assay on SK-MEL-28 melanoma were 1.45 µM, 9.25 µM and more than 50 µM, respectively. The TGI in the assay on CAKI-1 renal, in the assay on EKVX NSCLC, with K-562 leukemia, with NCI-H460 lung, with OVCAR-8 ovarian and in the assay on RPMI-8226 leukemia was more than 50 µM throughout. Besides, the figures for the TGI with RXF 393 renal, with SF-268 CNS and in the assay on SK-MEL-28 melanoma were 5.37 µM, 42.3 µM and more than 50 µM, respectively.

For the compound `COc1ccc(-c2nsc3c2NC(=O)CC3c2cccc(OC)c2)cc1` (centres undefined), the GI50 is 1.38 µM in the assay with CAKI-1 renal; 2.08 µM in the assay on CCRF-CEM leukemia; 0.358 µM in the assay on K-562 leukemia; 0.534 µM in the assay on NCI-H460 lung; 3.22 µM in the assay with OVCAR-8 ovarian; 1.61 µM in the assay with RPMI-8226 leukemia. Further, the values for the GI50 with RXF 393 renal, in the assay on SF-268 CNS and in the assay with SK-MEL-28 melanoma were 2.29 µM, 4.53 µM and 10.7 µM, respectively. Further, the TGI with CAKI-1 renal was more than 100 µM; in the assay with CCRF-CEM leukemia it was more than 100 µM; in the assay on K-562 leukemia, more than 100 µM; in the assay on NCI-H460 lung it was 71.8 µM; with OVCAR-8 ovarian, more than 100 µM; in the assay with RPMI-8226 leukemia, more than 100 µM. In addition, the TGI is 8.95 µM in the assay with RXF 393 renal, more than 100 µM with SF-268 CNS and more than 100 µM in the assay on SK-MEL-28 melanoma.

On to `Cc1cc2cc3c(=O)[nH]c(=O)[nH]c3nc2cc1C`, for which the TGI in the assay on CAKI-1 renal, with EKVX NSCLC, in the assay with K-562 leukemia, in the assay with NCI-H460 lung, in the assay on OVCAR-8 ovarian and with RPMI-8226 leukemia was more than 100 µM throughout. In addition, the TGI in the assay with RXF 393 renal, in the assay with SF-268 CNS and in the assay with SK-MEL-28 melanoma was more than 100 µM each time.

For the compound `O=C(/C=C/C=C/c1ccccc1)c1ccccc1`, the TGI with CAKI-1 renal turned out to be 31.4 µM; in the assay with EKVX NSCLC, 28.6 µM; in the assay with K-562 leukemia, 66.2 µM; in the assay on NCI-H460 lung, 49.5 µM; in the assay on OVCAR-8 ovarian, 26.1 µM; in the assay on RPMI-8226 leukemia it was 72.5 µM. Also, the results for the TGI in the assay with RXF 393 renal, in the assay on SF-268 CNS and in the assay on SK-MEL-28 melanoma were 37.3 µM, 38.2 µM and 31.3 µM, respectively.

Regarding `O=[N+]([O-])c1ccc(CI)cc1`, the GI50 is 1.91 µM with CAKI-1 renal; 0.518 µM in the assay with CCRF-CEM leukemia; 0.404 µM with K-562 leukemia; 3.2 µM with NCI-H460 lung; 3.71 µM in the assay on OVCAR-8 ovarian; 2.3 µM in the assay with RPMI-8226 leukemia. Moreover, the GI50 in the assay on RXF 393 renal was 2.44 µM; in the assay with SF-268 CNS, 4.02 µM; in the assay on SK-MEL-28 melanoma, 5.15 µM. Besides, the TGI with CAKI-1 renal is 3.98 µM; with CCRF-CEM leukemia, 2.59 µM; in the assay on K-562 leukemia it was 2.95 µM; with NCI-H460 lung, 10.5 µM; in the assay on OVCAR-8 ovarian, 13.3 µM; in the assay on RPMI-8226 leukemia, 5.68 µM. Further, the TGI in the assay on RXF 393 renal turned out to be 8.74 µM; with SF-268 CNS, 15.2 µM; in the assay with SK-MEL-28 melanoma, 18.2 µM.

With `O=[N+]([O-])c1cccc2ccc(N/N=C/c3ccccc3O)nc12`, the GI50 is more than 100 µM with CAKI-1 renal; more than 100 µM in the assay with EKVX NSCLC; 1.46 µM in the assay on K-562 leukemia; more than 100 µM in the assay with NCI-H460 lung; more than 100 µM in the assay with OVCAR-8 ovarian; 0.027 µM in the assay on RPMI-8226 leukemia. Further, the GI50 in the assay on RXF 393 renal was 65.8 µM; in the assay on SF-268 CNS, more than 100 µM; in the assay on SK-MEL-28 melanoma, more than 100 µM. Moreover, the TGI in the assay with CAKI-1 renal was more than 100 µM; in the assay with EKVX NSCLC, more than 100 µM; in the assay on K-562 leukemia it was more than 100 µM; in the assay on NCI-H460 lung, more than 100 µM; in the assay with OVCAR-8 ovarian, more than 100 µM; in the assay on RPMI-8226 leukemia, 3.12 µM. Besides, the TGI in the assay on RXF 393 renal, with SF-268 CNS and in the assay on SK-MEL-28 melanoma was more than 100 µM throughout.

Consider `Nc1c(C(=O)c2ccccc2)cnn1-c1ccc(F)cc1`, for which the GI50 in the assay on CAKI-1 renal, in the assay with CCRF-CEM leukemia, in the assay with K-562 leukemia, with NCI-H460 lung, in the assay on OVCAR-8 ovarian and with RPMI-8226 leukemia was more than 25 µM each time. The GI50 in the assay on RXF 393 renal, in the assay with SF-268 CNS and in the assay on SK-MEL-28 melanoma was more than 25 µM each time. The TGI in the assay with CAKI-1 renal, in the assay with CCRF-CEM leukemia, with K-562 leukemia, with NCI-H460 lung, in the assay on OVCAR-8 ovarian and in the assay on RPMI-8226 leukemia was more than 25 µM in each case. The TGI with RXF 393 renal, with SF-268 CNS and in the assay with SK-MEL-28 melanoma was more than 25 µM throughout.
